What was measured:
Assay in all cases: probe loading in HEK293T, FLAG IP, TAMRA click, in-gel fluorescence
Format in all cases: cell-based
Settings in all cases: 15 µM, fed as free acid and activated to the CoA ester in cells; covalent thioester
ZDHHC11 = target: T1, ZDHHC11 (Homo sapiens, UniProt Q9H8X9, M181A)
T1 construct: N-terminal 3xFLAG tag; expressed in HEK293T, anti-FLAG immunoprecipitated
T1 sequence (Q9H8X9 1-412 M181A): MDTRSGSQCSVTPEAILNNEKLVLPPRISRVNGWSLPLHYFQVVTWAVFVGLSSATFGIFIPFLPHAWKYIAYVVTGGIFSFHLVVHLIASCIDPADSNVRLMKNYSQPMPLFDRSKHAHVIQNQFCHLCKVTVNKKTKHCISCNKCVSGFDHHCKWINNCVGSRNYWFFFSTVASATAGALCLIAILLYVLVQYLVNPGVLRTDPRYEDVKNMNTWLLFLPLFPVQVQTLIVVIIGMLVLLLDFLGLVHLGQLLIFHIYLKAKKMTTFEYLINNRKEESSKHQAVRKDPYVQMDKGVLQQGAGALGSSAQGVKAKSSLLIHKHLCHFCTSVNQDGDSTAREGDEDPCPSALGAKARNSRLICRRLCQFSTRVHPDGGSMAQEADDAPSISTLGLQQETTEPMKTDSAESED
From the text: probe loading in HEK293T, FLAG IP, TAMRA click, in-gel fluorescence on ZDHHC11 | ZDHHC11(M181A)/16-cPr

ZDHHC7 = target: T2, ZDHHC7 (Homo sapiens, UniProt Q9NXF8, L57G)
T2 construct: N-terminal 3xFLAG tag; expressed in HEK293T, anti-FLAG immunoprecipitated
T2 sequence (Q9NXF8 1-308 L57G): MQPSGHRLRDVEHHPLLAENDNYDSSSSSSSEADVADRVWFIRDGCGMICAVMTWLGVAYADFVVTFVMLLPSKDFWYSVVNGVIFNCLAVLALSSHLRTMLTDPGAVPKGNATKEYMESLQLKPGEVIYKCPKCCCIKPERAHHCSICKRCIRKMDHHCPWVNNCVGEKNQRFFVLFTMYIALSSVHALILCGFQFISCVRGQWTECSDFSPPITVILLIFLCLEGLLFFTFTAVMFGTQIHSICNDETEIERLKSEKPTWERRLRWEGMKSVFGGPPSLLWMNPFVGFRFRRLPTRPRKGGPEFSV
From the text: probe loading in HEK293T, FLAG IP, TAMRA click, in-gel fluorescence on ZDHHC7 | ZDHHC7(L57G)/20-Bz

ZDHHC15 = target: T3, ZDHHC15 (Homo sapiens, UniProt Q96MV8, Y184G)
T3 construct: N-terminal 3xFLAG tag; expressed in HEK293T, anti-FLAG immunoprecipitated
T3 sequence (Q96MV8 1-337 Y184G): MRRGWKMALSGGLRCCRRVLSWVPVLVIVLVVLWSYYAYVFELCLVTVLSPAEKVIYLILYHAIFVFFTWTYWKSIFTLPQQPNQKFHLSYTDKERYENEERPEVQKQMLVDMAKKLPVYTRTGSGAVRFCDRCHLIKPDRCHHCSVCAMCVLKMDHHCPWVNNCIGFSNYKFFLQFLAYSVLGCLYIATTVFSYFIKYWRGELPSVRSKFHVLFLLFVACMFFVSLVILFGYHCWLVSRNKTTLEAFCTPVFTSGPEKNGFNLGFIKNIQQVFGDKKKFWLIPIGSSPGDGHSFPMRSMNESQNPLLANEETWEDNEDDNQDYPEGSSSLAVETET
From the text: probe loading in HEK293T, FLAG IP, TAMRA click, in-gel fluorescence on ZDHHC15 | ZDHHC15(Y184G)/20-cPr

ZDHHC3 = target: T4, ZDHHC3 (Homo sapiens, UniProt Q9NYG2, I182G)
T4 construct: N-terminal 3xFLAG tag; expressed in HEK293T, anti-FLAG immunoprecipitated
T4 sequence (Q9NYG2 1-299 I182G): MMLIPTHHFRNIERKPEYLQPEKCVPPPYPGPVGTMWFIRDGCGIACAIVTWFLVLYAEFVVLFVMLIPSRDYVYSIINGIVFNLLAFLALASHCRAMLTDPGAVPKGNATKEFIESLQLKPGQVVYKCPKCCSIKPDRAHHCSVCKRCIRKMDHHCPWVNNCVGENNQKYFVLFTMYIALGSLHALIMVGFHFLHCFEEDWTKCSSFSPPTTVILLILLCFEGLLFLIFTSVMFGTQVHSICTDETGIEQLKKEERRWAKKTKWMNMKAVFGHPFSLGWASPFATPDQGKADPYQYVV

## C#CCN(CCCCCCCCCCCC(=O)O)C(=O)C1CC1 [6b, 12-(N-(Prop-2-yn-1-yl)cyclopropanecarboxamido)dodecanoic acid]
ZDHHC11
  probe loading in HEK293T, FLAG IP, TAMRA click, in-gel fluorescence: ZDHHC11(M181A)/16-cPr

## C#CCN(CCCCCCCCCCCCCCCC(=O)O)C(=O)c1ccccc1 [6i, 16-(N-(Prop-2-yn-1-yl)benzamido)hexadecanoic acid]
ZDHHC7
  probe loading in HEK293T, FLAG IP, TAMRA click, in-gel fluorescence: ZDHHC7(L57G)/20-Bz

## C#CCN(CCCCCCCCCCCCCCCC(=O)O)C(=O)C1CC1 [6h, 16-(N-(Prop-2-yn-1-yl)cyclopropanecarboxamido)hexadecanoic acid]
ZDHHC15
  probe loading in HEK293T, FLAG IP, TAMRA click, in-gel fluorescence: ZDHHC15(Y184G)/20-cPr
ZDHHC3
  probe loading in HEK293T, FLAG IP, TAMRA click, in-gel fluorescence: four additional optimized mutant/probe pairs: ZDHHC3(I182G)/20-cPr

Source: PMC11471619, “A palmitoyl transferase chemical–genetic system to map ZDHHC-specific S-acylation” (Nature Biotechnology, 2024)
